Series [1] concerns conscious Sprague-Dawley rats. In words: Positive inotropic challenge (dobutamine, levosimendan) after supra-therapeutic mavacamten, echocardiography. Format: in vivo, rat. The note with it: healthy rats exposed to a supra-therapeutic dose of mavacamten. On the procedure: Methods: The responsiveness of mavacamten-induced cardio-depression to positive inotropic challenges was assessed in a set of conscious Sprague-Dawley rats. In these animals, functional reserve was assessed via either dobutamine (+DOB, 10 μg/kg/min IV for 10 min, n=7) or levosimendan (+LEVO, 0.3 μmol/kg IV over […]; n=6) challenges given 3 hrs following a single-dose administration of MAVA (at 4 mg/kg, PO). Cardiac function/geometry were recorded and compared at three separate time-points/days: prior to dosing (i.e., at baseline) and at 3 hrs post-dosing both before as well as during the inotropic challenge; in order to account for the levosimendan-induced changes in loading conditions, an additional echocardiographic examination was performed following acute preload-restoration in LEVO-treated rats (+LEVO/F, 0.9% NaCl at 30 mL/kg/hr IV).
In these experiments, left-ventricular fractional shortening (FS), an index of systolic performance, as well as LV dimensions/volumes and heart rates were measured using a high-frequency transducer and parasternal long-axis transthoracic views (Vevo2100, VisualSonic). FS was defined as the end-diastole normalized change in internal dimensions/diameter of the left ventricle between end-systole (LVESd) and end-diastole (LVEDd) (i.e., FS=100·[LVEDd−LVESd]/LVEDd). LV volumes were derived assuming a Teichholz model (LVV=7·[2.4+LVid]−1·LVid3).

The nature of series [2]: Solubility estimates at ambient temperature. It counts as physicochemical. The note with it: for solubility: organic solvent or mixture, thermodynamic from solid, read-out: solubility estimate. On the procedure: Solubilities were calculated based on the total solvent used to give a solution; actual solubilities may be greater because of the volume of solvent portions utilized or a slow rate of dissolution. […] If dissolution occurred at the first aliquot, the value was reported as “>”.
Solubility estimates at ambient temperature were performed in 25 solvents and solvent systems using Form A (Lot 2-4) (Table 13.3).

For series [3], the system named is Yucatan mini-pigs with a heterozygous MYH7 R403Q mutation. The series can be described thus: Chronic MYK-581 in mini-pig genetic model of non-obstructed HCM (cMR imaging, invasive hemodynamics, dobutamine challenge). It counts as in vivo. On the procedure:
The mini-pigs were treated for at least 12 weeks and were evaluated as shown in Schematic 1 below. […] After ~14 weeks of treatment, all pigs underwent in vivo cMR imaging for the assessment of LV function and geometry, as well as of myocardial composition via of Late Gadolinium Enhancement (LGE) and T1 mapping techniques including extracellular volume (ECV) assessments. In addition, a subset of animals (MYK: n=6, CTRL: n=5) also underwent terminal invasive hemodynamics assessments, including cardiac output (CO, via thermodilution), load-independent systolic/diastolic function (via LV pressure-volume relationships), and β-adrenergic (β-AR) cardiac reserve (via dobutamine at 5 μg/kg/min IV).
The mini-pig model can be obtained following the method disclosed in a presentation entitled “A Minipig Genetic Model of Hypertrophic Cardiomyopathy Uncovers the Pathophysiological Mechanisms of Disease Evolution”, by E. Green et al., at University of Iowa, Carver College of Medicine.

The text below walks through data of US20260207600A1, “METHODS OF TREATMENT WITH MYOSIN MODULATOR” (MYOKARDIA, INC., priority 2019, published 2026).

Like-named read-outs stand apart in the source and are kept apart here. Bounds are passed on as bounds.

Consider `CC(CCc1ccc(O)cc1)NCCc1ccc(O)c(O)c1` (stereo not drawn) [dobutamine], for which, in series [1], the “echocardiography-derived indices of systolic function after supra-therapeutic mavacamten” value was “successfully rescued/restored”.
Regarding `CC(C)n1c(=O)cc(N[C@@H](C)c2ccccc2)[nH]c1=O` [Form A, (S)-3-isopropyl-6-((1-phenylethyl)amino)-pyrimidine-2,4 (1H,3H)-dione], in series [2] (methanol, THF, THF/water (90/10, vol/vol) and DMSO/water (90/10, vol/vol)), the solubility estimate result is listed as “limited solubility”. Besides, the solubility is not below 20 mg/mL in series [2] (HFIPA and various mixtures with DMSO, NMP and DMF); not above 1 mg/mL in series [2] (anisole, isopropanol, MIBK, nitromethane, and toluene).
`C[C@@H]1CC(=O)NN=C1c1ccc(NN=C(C#N)C#N)cc1` [levosimendan]: the “echocardiography-derived indices of systolic function after supra-therapeutic mavacamten” value in series [1] was “successfully rescued/restored”.
In series [3] (control 3.5±0.3), `CC(C)n1c(=O)cc(N[C@@H](C)c2cccc(F)c2)[nH]c1=O` [MYK-581, (S)-6-((1-(3-fluorophenyl)ethyl)amino)-3-isopropylpyrimidine-2,4 (1H,3H)-dione] showed an LV stiffness of 1.3±0.2 mmHg/mL. Moreover, the LV end-diastolic pressures in series [3] (control 23±4) is 9±1 mmHg. In addition, in series [3] (control 29±4), the left-atrial volumes was 16 ± 1 mL. Moreover, in series [3] (control 32±2), the ECV is 27±1%. In series [3] (control 66±5), this compound had an LV mass of 51 ± 4 g. The compound further displayed a time-constants of relaxation in series [3] (control 71±5) of 45 ± 3 ms. Further, in series [3] (dobutamine challenge, control +26±2), the “CO increase under β-AR challenge” value is recorded as “+60±8%”. In addition, the β-AR stroke-volume recruitment result in series [3] (dobutamine challenge, control −14±6) is listed as “+15±4%”. The same compound had a mortality in series [3] (end of the study (~5 months), CTRL 40%) of 0%. This compound also showed an EF in series [3] (~14 weeks of treatment, cMR, control 65±2) of 59±2%.

What is called solubility is the concentration that dissolves in the medium under given conditions. A word on the mortality: it is the percentage killed.
